Results from patent US20220009914A1, “Analogs of Nitrofuran Antibiotics to Combat Resistance” (The Trustees of Indiana University, priority 2020, published 2022).
Like-named read-outs stand apart in the source and are kept apart here.

Legend:
native MDH = molecular target: T1, native MDH (Sus scrofa, UniProt P00346); experiment: native MDH enzymatic activity counter-screen; type: biochemical, pig; conditions: without NfsB nitroreductase; compounds added after refolding; read-out: Native MDH Activity IC50
T1 sequence (P00346 25-338): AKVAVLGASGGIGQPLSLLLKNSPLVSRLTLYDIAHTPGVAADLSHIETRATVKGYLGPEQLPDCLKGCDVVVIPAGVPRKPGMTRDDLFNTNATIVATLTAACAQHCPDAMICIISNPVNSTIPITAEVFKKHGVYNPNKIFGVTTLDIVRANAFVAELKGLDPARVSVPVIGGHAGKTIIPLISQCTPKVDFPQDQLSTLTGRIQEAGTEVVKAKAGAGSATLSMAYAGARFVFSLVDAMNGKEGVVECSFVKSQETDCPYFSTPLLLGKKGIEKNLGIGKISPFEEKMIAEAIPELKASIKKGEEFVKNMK
Method: Reagent Preparations & Assay Protocol: This assay was performed as described above for the GroEL/ES-dMDH refolding assay; however, the assay protocol differed in the sequence of compound addition to the assay plates. The refolding reactions were allowed to proceed for 45 min at 37° C. in the absence of test compounds (complete refolding of MDH occurs), then quenched with the EDTA stock. Compounds were then pin-transferred into the plates after the EDTA quenching step; thus, compound effects are only possible by inhibiting the fully-refolded MDH reporter substrate. […] A340 nm measurements were recorded at 0.5 minutes (start point) and at successive time points until the amount of NADH consumed reached ˜90% (end point, generally between 20-35 minutes). Compounds were tested in 8-point, 3-fold dilution series (62.5 μM to 29 nM during the reporter reaction) in clear, flat-bottom 384-well microtiter plates. IC50 values for the MDH reporter enzyme were determined as described above. Results presented represent the averages of IC50 values obtained from at least five replicates.
Evaluating analogs for inhibiting GroEL/ES-mediated substrate refolding functions. […] We first evaluated all test compounds in our standard GroEL/ES-mediated refolding assays that employ either malate dehydrogenase (MDH) or rhodanese (Rho) as the denatured substrate reporter enzymes. When denatured, these enzymes are efficiently folded by GroEL/ES in the absence of inhibitors, and thus act as reporters to determine the degree of inhibition against the bacterial chaperonin system. Inhibition was examined in the presence of these two orthogonal substrates in order to support that GroEL/ES inhibitors were on-target. To further support on-target effects against GroEL/ES, we counter-screened for inhibition of the native MDH and Rho enzymatic reporter reactions, where test compounds were added after the denatured MDH and Rho substrate enzymes were completely refolded by GroEL/ES.

native rhodanese = molecular target: T2, native rhodanese (Bos taurus, UniProt P00586); experiment: native rhodanese enzymatic activity counter-screen; type: biochemical; conditions: compounds added after refolding; read-out: Native Rho Activity IC50
T2 sequence (P00586 1-297): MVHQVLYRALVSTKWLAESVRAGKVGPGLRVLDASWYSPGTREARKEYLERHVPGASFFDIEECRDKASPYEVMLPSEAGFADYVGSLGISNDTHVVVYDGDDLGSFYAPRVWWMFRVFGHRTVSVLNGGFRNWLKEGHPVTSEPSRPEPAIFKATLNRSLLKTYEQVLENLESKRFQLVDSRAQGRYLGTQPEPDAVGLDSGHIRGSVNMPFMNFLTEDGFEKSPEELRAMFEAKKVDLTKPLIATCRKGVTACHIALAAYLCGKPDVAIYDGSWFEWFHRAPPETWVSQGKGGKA
Method: Counter-screening compounds for inhibition of native rhodanese enzymatic activity. Reagent Preparations & Assay Protocol: Reagents were identical to those used in the GroEL/ES-dRho refolding assay described above; however, the assay protocol differed in the sequence of compound addition to the wells. Compounds were pin-transferred after 50 minute incubation for the refolding cycle, but prior to the addition of the thiocyanate enzymatic assay stock. Thus, the refolding reactions were allowed to proceed for 50 min at 37° C. in the absence of test compounds, but the enzymatic activity of the refolded rhodanese reporter enzyme was monitored in the presence of test compounds (inhibitor concentration range during the enzymatic reporter reaction is 100 μM to 46 nM—3-fold dilutions). IC50 values for the rhodanese reporter enzyme were determined as described above. Results presented represent the averages of IC50 values obtained from at least four replicates.
All compounds were counter-screened for inhibiting the enzymatic activity of the native Rho reporter enzyme as per our previously reported procedure. Results presented represent the averages of IC50 values obtained from at least four replicates.

E. coli GroEL = molecular target: T3, E. coli GroEL (Escherichia coli, UniProt P0A6F5); experiment: GroEL-mediated ATPase assay; type: biochemical
T3 construct: made in house; host or cells: NEB 5-alpha E. coli
T3 sequence (P0A6F5 2-548): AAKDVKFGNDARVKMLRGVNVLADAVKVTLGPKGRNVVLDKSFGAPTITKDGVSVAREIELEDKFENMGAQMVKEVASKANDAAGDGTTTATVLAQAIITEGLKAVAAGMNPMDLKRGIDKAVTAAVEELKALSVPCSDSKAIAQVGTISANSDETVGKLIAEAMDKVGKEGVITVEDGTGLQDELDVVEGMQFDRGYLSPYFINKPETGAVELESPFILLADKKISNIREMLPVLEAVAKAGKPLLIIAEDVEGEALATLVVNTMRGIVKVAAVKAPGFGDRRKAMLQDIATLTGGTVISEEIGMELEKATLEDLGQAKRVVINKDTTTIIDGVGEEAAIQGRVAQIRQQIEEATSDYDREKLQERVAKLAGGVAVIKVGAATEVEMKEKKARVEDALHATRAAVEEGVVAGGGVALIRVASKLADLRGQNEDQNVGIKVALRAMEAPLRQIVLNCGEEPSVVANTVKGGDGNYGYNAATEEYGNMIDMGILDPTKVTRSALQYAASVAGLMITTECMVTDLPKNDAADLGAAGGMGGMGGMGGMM
Method: Evaluating compounds for inhibition in the GroEL-mediated ATPase assay. All compounds were evaluated for inhibiting E. coli GroEL-mediated ATPase activity as per our previously reported procedure although employing only GroEL in solution and not containing GroES or denatured MDH. Evaluating compounds for inhibition in the GroEL-mediated ATPase assay.
Reagent preparation: For this assay, four primary reagent solutions were prepared: 1) GroEL protein solution; 2) ATP initiation solution; 3) EDTA quench solution; 4) malachite green reporter solution. The GroEL protein solution consisted of 100 nM of GroEL in folding buffer (50 mM Tris-HCl, pH 7.4, 50 mM KCl, 10 mM MgCl2, and 1 mM DTT), which was prepared immediately prior to dispensing into the assay plates. For the ATP initiation solution, ATP solid was diluted into folding buffer to a final concentration of 2 mM. Quench solution contained 300 mM EDTA (pH 8.0). The malachite green reporter solution contained 0.034% w/v malachite green, 1.04% w/v ammonium molybdate, 1% Tween-20, and 1 M HCl dissolved in H2O.
Assay Protocol: First, 10 μL aliquots of the GroEL protein solution were dispensed into clear, flat-bottom 384-well polystyrene plates. […] After incubating for 45 minutes at 37° C., 10 μL of the EDTA quench solution was added to quench the reaction cycle. Then, 60 μL of the malachite green reporter solution was added and the plates were incubated at room temperature for 10 min. The absorbance of the malachite green-phosphate complex was measured at 600 nm using a Molecular Devices SpectraMax Plus384 microplate reader. A second set of baseline control plates were prepared analogously, but without GroEL protein solution, to correct for possible interference from compound absorbance or turbidity. […] Results presented represent the averages of IC50 values obtained from at least four replicates.
Evaluating analogs for inhibiting GroEL-mediated ATPase activity. […] Thus, we further tested analogs in a well-established GroEL ATPase assay that employed malachite green to monitor inorganic phosphate liberated as GroEL hydrolyzed ATP. Briefly, a solution of GroEL was incubated with test compounds (8-point, 3-fold dilution series) and the assay was initiated by addition of ATP. After incubating for 45 minutes, the ATPase reaction was quenched by the addition of EDTA. Malachite green was then added to the assay to bind and detect free phosphates in solution (absorbance detection at k=600 nm). If analogs inhibited ATPase activity, then there would be no free phosphates for malachite green to bind, leading to minimal absorbance at 600 nm.

For `O=C(N/N=C/c1ccc([N+](=O)[O-])o1)c1ccc(NS(=O)(=O)c2cccs2)cc1` [Compound 26, N-(4-(2-((5-nitrofuran-2-yl)methylene)hydrazine-1-carbonyl)phenyl)thiophene-2-sulfonamide], the IC50 (native MDH) was greater than 63 µM, the IC50 (native rhodanese) was 44 µM and the IC50 (E. coli GroEL) was greater than 250 µM.

`O=C(N/N=C/c1ccc([N+](=O)[O-])o1)c1cccc(Oc2ccccc2)c1` [Compound 24, N′-((5-nitrofuran-2-yl)methylene)-3-phenoxybenzohydrazide] showed an IC50 (native MDH) greater than 63 µM, an IC50 (native rhodanese) of 65 µM and an IC50 (E. coli GroEL) greater than 250 µM.

With `O=C(N/N=C/c1ccccc1)c1ccccc1` [Compound 38, N′-benzylidenebenzohydrazide] the IC50 (native MDH) was greater than 63 µM, the IC50 (native rhodanese) was greater than 100 µM and the IC50 (E. coli GroEL) was greater than 250 µM.

Molecule `O=C(N/N=C/c1ccc([N+](=O)[O-])o1)c1cccc2ccccc12` [Compound 22, N′-((5-nitrofuran-2-yl)methylene)-1-naphthohydrazide] has an IC50 (native MDH) greater than 63 µM, an IC50 (native rhodanese) of 45 µM and an IC50 (E. coli GroEL) greater than 250 µM.

`O=C(N/N=C/c1ccc(O)c2ncccc12)c1cccs1` [Compound 3, N′-((8-hydroxyquinolin-5-yl)methylene)thiophene-2-carbohydrazide] was tested, and the IC50 (native MDH) was greater than 63 µM, the IC50 (native rhodanese) was 87 µM and the IC50 (E. coli GroEL) was greater than 250 µM.

`COc1ccc(C(=O)N/N=C/c2cccc3ncccc23)cc1` [Compound 31, 4-methoxy-N′-(quinolin-5-ylmethylene)benzohydrazide] showed an IC50 (native MDH) greater than 63 µM, an IC50 (native rhodanese) greater than 100 µM and an IC50 (E. coli GroEL) greater than 250 µM.

`O=C(N/N=C/c1ccc(O)c2ncccc12)c1ccccc1` [Compound 5, N′-((8-hydroxyquinolin-5-yl)methylene)benzohydrazide] showed an IC50 (native MDH) greater than 63 µM, an IC50 (native rhodanese) of 95 µM and an IC50 (E. coli GroEL) greater than 250 µM.

For `O=C(N/N=C/c1ccc(O)c2ncccc12)c1ccncc1` [Compound 6, N′-((8-hydroxyquinolin-5-yl)methylene)isonicotinohydrazide], the IC50 (native MDH) was greater than 63 µM, the IC50 (native rhodanese) was greater than 100 µM and the IC50 (E. coli GroEL) was greater than 250 µM.

Work on `O=C1CN(/N=C/c2ccc(O)c3ncccc23)C(=O)N1` [Compound 2, 1-(((8-hydroxyquinolin-5-yl)methylene)amino)imidazolidine-2,4-dione] yielded an IC50 (native MDH) greater than 63 µM, an IC50 (native rhodanese) greater than 100 µM and an IC50 (E. coli GroEL) greater than 250 µM.

Work on `O=C(N/N=C/c1ccc(O)c2ccccc12)c1ccccc1` [Compound 30, N′-((4-hydroxynaphthalen-1-yl)methylene)benzohydrazide] yielded an IC50 (native MDH) greater than 63 µM, an IC50 (native rhodanese) of 97 µM and an IC50 (E. coli GroEL) greater than 250 µM.

Work on `O=C(N/N=C/c1cccc2ncccc12)c1ccccc1` [Compound 32, N′-(quinolin-5-ylmethylene)benzohydrazide] yielded an IC50 (native MDH) greater than 63 µM, an IC50 (native rhodanese) greater than 100 µM and an IC50 (E. coli GroEL) greater than 250 µM.

In the case of `O=C(N/N=C/c1ccc(O)c2ncccc12)c1cccc(Oc2ccccc2)c1` [Compound 11, N′-((8-hydroxyquinolin-5-yl)methylene)-3-phenoxybenzohydrazide], the IC50 (native MDH) is reported as greater than 63 µM, the IC50 (native rhodanese) is reported as 85 µM and the IC50 (E. coli GroEL) is reported as greater than 250 µM.

Molecule `COc1ccc(C(=O)N/N=C/c2ccccc2)cc1` [Compound 37, N′-benzylidene-4-methoxybenzohydrazide] has an IC50 (native MDH) greater than 63 µM, an IC50 (native rhodanese) greater than 100 µM and an IC50 (E. coli GroEL) greater than 250 µM.

`COc1ccc(C(=O)N/N=C/c2ccc(O)c3ccccc23)cc1` [Compound 29, N′-((4-hydroxynaphthalen-1-yl)methylene)-4-methoxybenzohydrazide] showed an IC50 (native MDH) greater than 63 µM, an IC50 (native rhodanese) of 66 µM and an IC50 (E. coli GroEL) greater than 250 µM.

`O=C(N/N=C/c1ccc(O)c2ncccc12)c1ccc(NS(=O)(=O)c2ccc(Br)cc2)cc1` [Compound 14, 4-bromo-N-(4-(2-((8-hydroxyquinolin-5-yl)methylene)hydrazine-1-carbonyl)phenyl)benzenesulfonamide] showed an IC50 (native MDH) greater than 63 µM, an IC50 (native rhodanese) greater than 100 µM and an IC50 (E. coli GroEL) greater than 250 µM.

Work on `COc1ccc(C(=O)N/N=C/c2ccc(O)cc2)cc1` [Compound 35, N′-(4-hydroxybenzylidene)-4-methoxybenzohydrazide] yielded an IC50 (native MDH) greater than 63 µM, an IC50 (native rhodanese) greater than 100 µM and an IC50 (E. coli GroEL) greater than 250 µM.

Molecule `O=C(N/N=C/c1ccc(O)c2ncccc12)c1ccc(NS(=O)(=O)c2cccs2)cc1` [Compound 13, N-(4-(2-((8-hydroxyquinolin-5-yl)methylene)hydrazine-1-carbonyl)phenyl)thiophene-2-sulfonamide] has an IC50 (native MDH) greater than 63 µM, an IC50 (native rhodanese) greater than 100 µM and an IC50 (E. coli GroEL) greater than 250 µM.

For `COc1ccc(C(=O)N/N=C/c2ccco2)cc1` [Compound 39, N′-(furan-2-ylmethylene)-4-methoxybenzohydrazide], the IC50 (native MDH) was greater than 63 µM, the IC50 (native rhodanese) was greater than 100 µM and the IC50 (E. coli GroEL) was greater than 250 µM.

Work on `O=Cc1ccc(O)c2ncccc12` [Compound 40, reference compound] yielded an IC50 (native MDH) greater than 63 µM, an IC50 (native rhodanese) of 18 µM and an IC50 (E. coli GroEL; GroEL only, no GroES or dMDH, read-out: GroEL ATPase IC50) greater than 250 µM.

In the case of `O=C(N/N=C/c1cccc2ccccc12)c1ccccc1` [Compound 34, N′-(naphthalen-1-ylmethylene)benzohydrazide], the IC50 (native MDH) is reported as greater than 63 µM, the IC50 (native rhodanese) is reported as greater than 100 µM and the IC50 (E. coli GroEL) is reported as greater than 250 µM.

Molecule `COc1ccc(C(=O)N/N=C/c2cccc3ccccc23)cc1` [Compound 33, 4-methoxy-N′-(naphthalen-1-ylmethylene)benzohydrazide] has an IC50 (native MDH) greater than 63 µM, an IC50 (native rhodanese) greater than 100 µM and an IC50 (E. coli GroEL) greater than 250 µM.

Work on `CCN(CC)S(=O)(=O)c1cccc(C(=O)N/N=C/c2ccc(O)c3ncccc23)c1` [Compound 12, N,N-diethyl-3-(2-((8-hydroxyquinolin-5-yl)methylene)hydrazine-1-carbonyl)benzenesulfonamide] yielded an IC50 (native MDH) greater than 63 µM, an IC50 (native rhodanese) of 81 µM and an IC50 (E. coli GroEL) greater than 250 µM.
